The source of these data is patent publication US20110178104A1, “Anti-Heparin Compounds” (POLYMEDIX INC., priority 2010, published 2011).

The test system of one experiment is fondaparinux. The experiment is described as follows: FXa amidolytic assay (Example 10), fondaparinux. The settings on record: read-out: Fondap FXa EC50; fondaparinux 0.02 μg/mL; human antithrombin, bovine Factor Xa.
In the next experiment the test system is tinzaparin. Description: FXa amidolytic assay (Example 10), tinzaparin. To be noted: read-out: Tinzap FXa EC50; tinzaparin 0.1 ug/ml; human antithrombin, bovine Factor Xa.
A further experiment deals with enoxaparin. The experiment is described as follows: FXa amidolytic assay (Example 10), enoxaparin. To be noted: read-out: Enox FXa EC50; enoxaparin 0.1 ug/ml; human antithrombin, bovine Factor Xa.
Another experiment concerns Unfractionated heparin. The experiment is described as follows: aPTT clotting assay, UFH 0.4 U/mL in plasma (Example 10). To be noted: unfractionated heparin 0.4 U/mL in plasma; aPTT clotting. In kind it is biochemical. How it is done: aPTT clotting Assay: Unfractionated heparin was mixed with plasma at a final concentration of 0.4 U/mL (or concentration which increases aPTT time to between 120 and 300 seconds). […] The ACL Elite Hemostasis analyzer (Beckman Coulter™) was used to add aPTT reagent (HemosIL SynthASil) to supplemented plasma. Clotting was initiated by addition of CaCl2 and time to clot was recorded.

Molecules are shown by their SMILES. Values joined by “and” are separate entries in the source; they are usually repeats but may differ in a detail not shown here. Identical values can stand only once.

Description for enoxaparin: (§1) Two μl of test agent are added (range between 0.01 and 23 ug/ml) and incubated for 5 minutes at 23° C. Bovine Factor Xa was added to a final concentration of 0.636 nkat/mL and incubated for a further 10 minutes at 23° C.
Description for fondaparinux: as §1
Description for tinzaparin: as §1

With `COc1cc(OC)c(C(=O)N[C@H]2CC[C@H](NC(=O)c3cc(C(=O)NCCCN)c(OC)cc3OC)CC2)cc1C(=O)O` [Compound 407], the EC50 is more than 10 µM with fondaparinux, more than 5 µM with tinzaparin, more than 5 µM with enoxaparin and more than 10 µM in the experiment with Unfractionated heparin.

With `COc1cc(OC)c(C(=O)N[C@H]2CC[C@@H](NC(=O)c3cc(C(=O)N[C@H]4CC[C@@H](N=C(N(C)C)N(C)C)CC4)c(OC)cc3OC)CC2)cc1C(=O)NCCCN` [Compound 405], the EC50 in the experiment on fondaparinux is more than 10 µM; with tinzaparin, more than 5 µM; with enoxaparin it was more than 5 µM; in the experiment with Unfractionated heparin, more than 10 µM.

`COc1ccc(NC(=O)[C@H](CCCCN)NC(=O)c2cc(NC(=O)[C@H](CCCCN)NC(=O)c3cc(NC(=O)[C@H](CCCCN)NC(=O)c4cc(NC(=O)[C@H](CCCCN)NC(=O)CC(=O)O)ccc4OC)ccc3OC)ccc2OC)cc1C(N)=O` [Compound 290]: the EC50 with fondaparinux was found to be 1.88 µM; in the experiment on tinzaparin, 0.212 µM; in the experiment with enoxaparin, 0.318 µM; in the experiment on Unfractionated heparin it was 2.27 µM.

On to `COc1ccc(NC(=O)[C@@H](CCCNC(=N)N)NC(=O)c2cc(NC(=O)[C@@H](CCCNC(=N)N)NC(=O)c3cc(NC(=O)[C@@H](CCCNC(=N)N)NC(=O)c4cc(NC(C)=O)ccc4OC)ccc3OC)ccc2OC)cc1C(=O)NCCC(=O)O` [Compound 295], for which the EC50 with fondaparinux stood at 0.387 µM; in the experiment on tinzaparin, 0.325 µM; in the experiment with enoxaparin, 0.312 µM; with Unfractionated heparin, 3.99 µM.

In the case of `COc1ccc(NC(=O)[C@H](CCCCN)NC(=O)c2cc(NC(=O)[C@H](CCCCN)NC(=O)c3cc(NC(=O)[C@H](CCCCN)NC(=O)c4cc(NC(=O)[C@H](CCCCN)NC(=O)COCC(=O)O)ccc4OC)ccc3OC)ccc2OC)cc1C(N)=O` [Compound 345], the EC50 with fondaparinux turned out to be 0.911 µM; in the experiment on tinzaparin it was 0.205 µM; in the experiment on enoxaparin, 0.233 µM; in the experiment with Unfractionated heparin, 2.99 µM.

As for `COc1ccc(NC(=O)[C@H](CCCCN)NC(=O)c2cc(NC(=O)[C@H](CCCCN)NC(=O)c3cc(NC(=O)[C@H](CCCCN)NC(=O)c4cc(NC(=O)[C@@H](N)CCCCN)cc(C(F)(F)F)c4)ccc3OC)ccc2OC)cc1C(N)=O` [Compound 239], the EC50 in the experiment with fondaparinux turned out to be 4 µM; in the experiment on tinzaparin it was 0.124 µM; with enoxaparin it was 0.241 µM; with Unfractionated heparin, 4.26 µM.

Take `COc1cc(OC)c(C(=O)NCC2CCN(C(=O)c3cc(C(=O)N4CCC(CNC(=O)c5cc(C(=O)NCCN)c(OC)cc5OC)CC4)c(OC)cc3OC)CC2)cc1C(=O)NCCN` [Compound 395]: the EC50 in the experiment with fondaparinux was more than 10 µM; in the experiment with tinzaparin it was more than 5 µM; in the experiment on enoxaparin it was more than 5 µM; with Unfractionated heparin it was more than 10 µM.

On to `COc1cc(OC)c(C(=O)Nc2ccc(NC(=O)c3cc(C(=O)Nc4ccc(NC(=O)c5cc(C(=O)NCCN)c(OC)cc5OC)cc4)c(OC)cc3OC)cc2)cc1C(=O)NCCN` [Compound 421], for which the EC50 amounted to 0.159 µM with fondaparinux, 0.22 µM with tinzaparin, 0.238 µM in the experiment with enoxaparin and 1.2 µM with Unfractionated heparin.

In the case of `COc1ccc(NC(=O)[C@H](CCCNC(=N)N)NC(=O)c2cc(NC(=O)[C@@H](N)CCCNC(=N)N)ccc2OC)cc1C(=O)N[C@@H](CCCNC(=N)N)C(=O)Nc1ccc(OC)c(C(=O)N[C@@H](CCCNC(=N)N)C(=O)Nc2ccc(OC)c(C(=O)N3CCC[C@H]3C(N)=O)c2)c1` [Compound 234], the EC50 is more than 10 µM in the experiment with fondaparinux, 0.446 µM in the experiment with tinzaparin, 1.01 µM with enoxaparin and more than 10 µM with Unfractionated heparin.

Regarding `COc1cc(OC)c(C(=O)NCCCNC(=O)c2cc(C(=O)NCCN)c(OC)cc2OC)cc1C(=O)O` [Compound 392], the EC50 was more than 10 µM in the experiment with fondaparinux, more than 5 µM in the experiment on tinzaparin, more than 5 µM in the experiment on enoxaparin and more than 10 µM in the experiment on Unfractionated heparin.

Consider `COc1ccc(NC(=O)[C@H](CCCCN)NC(=O)c2cc(NC(=O)[C@H](CCCCN)NC(=O)c3cc(NC(=O)[C@H](CCCCN)NC(=O)c4cc(NC(=O)[C@@H](N)CCCCN)ccc4OCC(=O)O)ccc3OC)ccc2OC)cc1C(N)=O` [Compound 272], for which the EC50 in the experiment with fondaparinux turned out to be 7.69 µM; in the experiment with tinzaparin, 0.24 µM; with enoxaparin, 0.541 µM; with Unfractionated heparin, 3.09 µM.

With `COc1ccc(NC(=O)[C@H](CCCNC(=N)N)NC(=O)c2cc(NC(=O)[C@H](CCCNC(=N)N)NC(=O)c3cc(NC(=O)[C@H](C)NC(=O)CCCCNC(=N)N)ccc3OC)ccc2OC)cc1C(N)=O` [Compound 224], the EC50 turned out to be 4.45 µM in the experiment with fondaparinux, 0.792 µM in the experiment with tinzaparin, 1.02 µM with enoxaparin and 7.23 µM with Unfractionated heparin.

As to `COc1ccc(NC(=O)[C@H](CCCCN)NC(=O)c2cc(NC(=O)[C@H](CCCCN)NC(=O)c3cc(NC(=O)[C@H](CCCCN)NC(=O)c4cccc(N(C)C(=O)[C@@H](N)CCCCN)c4)ccc3OC)ccc2OC)cc1C(N)=O` [Compound 242], the EC50 was more than 10 µM with fondaparinux, more than 5 µM with tinzaparin, more than 5 µM in the experiment on enoxaparin and 1.39 µM in the experiment with Unfractionated heparin.

In the case of `COc1cc(OC)c(C(=O)NCCCNC(=O)c2cc(C(=O)NCCCN)c(OC)cc2OC)cc1C(=O)O` [Compound 409], the EC50 with fondaparinux is more than 10 µM; in the experiment with tinzaparin, more than 5 µM; in the experiment on enoxaparin, more than 5 µM; with Unfractionated heparin, more than 10 µM.

Take `COc1ccc(NC(=O)[C@H](CCCNC(=N)N)NC(=O)c2cc(NC(=O)[C@H](CCCNC(=N)N)NC(=O)c3cc(NC(=O)[C@H](CCCNC(=N)N)NC(=O)c4cc(NC(=O)[C@@H](N)CCCNC(=N)N)ccc4OCC(=O)O)ccc3OC)ccc2OC)cc1C(N)=O` [Compound 289]: the EC50 in the experiment with fondaparinux was found to be 0.508 µM; in the experiment on tinzaparin, 0.108 µM; in the experiment on enoxaparin, 0.133 µM; in the experiment with Unfractionated heparin, 1.76 µM.

With `COc1cc(OC)c(C(=O)N[C@H]2CC[C@@H](NC(=O)c3cc(C(=O)NC4CCNCC4)c(OCCCCCN)cc3OCCCCCN)CC2)cc1C(=O)N[C@H]1CC[C@@H](NC(=O)c2cc(C(=O)NC3CCNCC3)c(OCCCCCN)cc2OCCCCCN)CC1` [Compound 425], the EC50 was determined as 0.502 µM in the experiment with fondaparinux, 0.062 µM in the experiment with tinzaparin, 0.088 µM in the experiment with enoxaparin and 0.429 µM in the experiment on Unfractionated heparin.

On to `COc1ccc(NC(=O)[C@@H](CCCNC(=N)N)NC(=O)c2cc(NC(=O)[C@@H](CCC(=O)O)NC(=O)c3cc(NC(=O)[C@@H](CCCNC(=N)N)NC(=O)c4cc(NC(=O)[C@H](N)CCCNC(=N)N)ccc4OC)ccc3OC)ccc2OC)cc1C(N)=O` [Compound 320], for which the EC50 in the experiment with fondaparinux was 4.89 µM; in the experiment with tinzaparin it was 0.285 µM; with enoxaparin, 0.901 µM; in the experiment with Unfractionated heparin, 2.42 µM.

As to `COc1cc(OC)c(C(=O)N[C@H]2CC[C@H](NC(=O)c3cc(C(=O)O)ncn3)CC2)cc1C(=O)NCCN` [Compound 403], the EC50 was more than 10 µM with fondaparinux, more than 5 µM in the experiment with tinzaparin, more than 5 µM with enoxaparin and more than 10 µM in the experiment on Unfractionated heparin.

In the case of `COc1ccc(NC(=O)[C@H](CCCCN)NC(=O)c2cc(NC(=O)[C@H](CCCCN)NC(=O)c3cc(NC(=O)[C@H](CCCCN)NC(=O)c4cc(NC(=O)[C@H](C)N)ccc4OC)ccc3OC)ccc2OC)cc1C(N)=O` [Compound 233], the EC50 in the experiment on fondaparinux was found to be 3.46 µM; in the experiment with tinzaparin it was 0.268 µM; with enoxaparin, 0.376 µM; in the experiment with Unfractionated heparin, 1.59 µM.

In the case of `COc1ccc(NC(=O)[C@H](CCCCN)NC(=O)c2cc(NC(=O)[C@H](CCCCN)NC(=O)c3cc(NC(=O)[C@H](CCCCN)NC(=O)c4cccc(NC(=O)[C@@H](N)CCCCN)c4)ccc3OC)ccc2OC)cc1C(N)=O` [Compound 216], the concentration for a half-maximal effect (EC50) in the experiment with fondaparinux is 7.87 µM; with tinzaparin, 0.191 µM; with enoxaparin it was 0.347 µM; with Unfractionated heparin, 1.22 µM.

Take `COc1ccc(NC(=O)[C@H](CCCCN)NC(=O)c2cc(NC(=O)[C@H](CCCCN)NC(=O)c3cc(NC(=O)[C@H](CCCCN)NC(=O)c4cc(C(=O)NCCCCCN)c(OC)cc4OC)ccc3OC)ccc2OC)cc1C(N)=O` [Compound 248]: the EC50 was 1.84 µM in the experiment on fondaparinux, 0.158 µM in the experiment on tinzaparin, 0.208 µM in the experiment with enoxaparin and 2.08 µM with Unfractionated heparin.

As to `COc1cc(OC)c(C(=O)N[C@H]2CC[C@@H](NC(=O)c3cc(C(=O)N4CCC(CN)CC4)c(OCCCCCN)cc3OCCCCCN)CC2)cc1C(=O)N[C@H]1CC[C@@H](NC(=O)c2cc(C(=O)N3CCC(CN)CC3)c(OCCCCCN)cc2OCCCCCN)CC1` [Compound 423], the EC50 in the experiment with fondaparinux was more than 10 µM; in the experiment on tinzaparin it was 0.296 µM; with enoxaparin, 1.18 µM; with Unfractionated heparin it was 3.15 µM.

Take `COc1ccc(NC(=O)[C@H](CCCCN)NC(=O)c2cc(NC(=O)[C@H](CCCCN)NC(=O)c3cc(NC(=O)[C@H](CCCCN)NC(=O)c4cc(NC(=O)[C@@H](N)CCCCN)ccc4OC)ccc3OC)ccc2OC)cc1C(=O)NCC(=O)O` [Compound 260]: the EC50 is 5.08 µM and 3.97 µM in the experiment on fondaparinux; 0.247 µM and 0.215 µM in the experiment on tinzaparin; 0.399 µM and 0.284 µM with enoxaparin; 1.66 µM and 1.41 µM in the experiment on Unfractionated heparin.

`[2H]C(C([2H])C([2H])([2H])CN)[C@H](N)C(=O)Nc1ccc(OC)c(C(=O)N[C@@H](CCCCN)C(=O)Nc2ccc(OC)c(C(=O)N[C@@H](CCCCN)C(=O)Nc3ccc(OC)c(C(=O)N[C@@H](CCCCN)C(=O)Nc4ccc(OC)c(C(N)=O)c4)c3)c2)c1` (stereo partly shown) [Compound 230]: the EC50 in the experiment with fondaparinux is 4.88 µM; with tinzaparin, 0.147 µM; in the experiment on enoxaparin, 0.252 µM; with Unfractionated heparin it was 2.78 µM.

In the case of `COc1ccc(NC(=O)[C@H](CCCNC(=N)N)NC(=O)c2cc(NC(=O)[C@H](CCCNC(=N)N)NC(=O)c3cc(NC(=O)[C@H](CCCNC(=N)N)NC(=O)c4cc(NC(=O)[C@H](C)NC(=O)CCCCNC(=N)N)ccc4OC)ccc3OC)ccc2OC)cc1C(N)=O` [Compound 223], the concentration giving a half-maximal response (EC50) in the experiment with fondaparinux turned out to be 0.802 µM; with tinzaparin, 0.248 µM; with enoxaparin, 0.316 µM; in the experiment on Unfractionated heparin, 4.09 µM.

What is called EC50 is the midpoint of the concentration-response curve.
